Results: PubChem BioAssay AID328 (DTP/NCI, 2004)
Several values for one entry are separate records, joined by “and”; a condition that tells them apart may be missing. Equal entries are not always repeated. Toxic doses and inconclusive results are not listed.

Tested on: BDF1 mice, P388 leukemia ip, median survival T/C
Experiment: NCI In Vivo Anticancer Drug Screen. Data for tumor model P388 Leukemia (intraperitoneal) in B6D2F1 (BDF1) mice
Settings: endpoint: median survival time, higher = longer survival
Procedure, shortened: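 Vehicle-dosed animals serve as the reference; survival of compound-dosed, tumour-implanted mice is divided by it.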

[1] = dose: 50.0 mg/kg/injection, schedule: Q01DX009 (ip), vehicle: saline with Tween-80
[2] = dose: 100.0 mg/kg/injection, schedule: Q01DX009 (ip), vehicle: saline with Tween-80
[3] = dose: 100.0 mg/kg/injection, schedule: Q04DX003 (ip), vehicle: saline with Tween-80
[4] = dose: 200.0 mg/kg/injection, schedule: Q01DX009 (ip), vehicle: saline with Tween-80
[5] = dose: 200.0 mg/kg/injection, schedule: Q04DX003 (ip), vehicle: saline with Tween-80
[6] = dose: 400.0 mg/kg/injection, schedule: Q04DX003 (ip), vehicle: saline with Tween-80
[7] = dose: 50.0 mg/kg/injection, schedule: Q04DX003 (ip), vehicle: saline with Tween-80
[8] = dose: 100.0 mg/kg/injection, schedule: Q04DX003 (ip), vehicle: Klucel (hydroxypropylcellulose) (HPC)
[9] = dose: 200.0 mg/kg/injection, schedule: Q04DX003 (ip), vehicle: Klucel (hydroxypropylcellulose) (HPC)
[10] = dose: 400.0 mg/kg/injection, schedule: Q04DX003 (ip), vehicle: Klucel (hydroxypropylcellulose) (HPC)

CCNC(C)(C)C(SSS)c1ccco1 (centres undefined)
T/C (dose: 100.0 mg/kg/injection, schedule: Q04DX003 (ip), vehicle: gum acacia): 100 % of control and 116 % of control
T/C (dose: 134.0 mg/kg/injection, schedule: Q01DX009 (ip), vehicle: gum acacia): 100 % of control
T/C (dose: 200.0 mg/kg/injection, schedule: Q04DX003 (ip), vehicle: gum acacia): 109 % of control
T/C (dose: 400.0 mg/kg/injection, schedule: Q04DX003 (ip), vehicle: gum acacia): 91 % of control and 122 % of control

CN(C)c1ccc(-c2cc(C(=O)O)c3cc4ccccc4cc3n2)cc1
T/C (dose: 12.5 mg/kg/injection, schedule: Q01DX009 (ip), vehicle: saline with Tween-80): 97 % of control
T/C (dose: 25.0 mg/kg/injection, schedule: Q01DX009 (ip), vehicle: saline with Tween-80): 97 % of control
T/C [1]: 94 % of control and 102 % of control
T/C [2]: 98 % of control and 104 % of control

Nc1cc(Cl)c2cccnc2c1O
T/C (dose: 12.5 mg/kg/injection, schedule: Q01DX009 (ip), vehicle: saline): 111 % of control and 115 % of control
T/C (dose: 22.0 mg/kg/injection, schedule: Q01DX009 (ip), vehicle: saline): 118 % of control
T/C (dose: 25.0 mg/kg/injection, schedule: Q01DX009 (ip), vehicle: saline): 104 % of control and 117 % of control
T/C (dose: 44.0 mg/kg/injection, schedule: Q04DX003 (ip), vehicle: saline sonified): 100 % of control
T/C (dose: 50.0 mg/kg/injection, schedule: Q04DX003 (ip), vehicle: saline sonified): 100 % of control
T/C (dose: 66.0 mg/kg/injection, schedule: Q04DX003 (ip), vehicle: saline sonified): 118 % of control
T/C (dose: 100.0 mg/kg/injection, schedule: Q04DX003 (ip), vehicle: saline sonified): 113 % of control

COc1ccc(OC)c(C(C)(O)CC(=O)O)c1 (centres undefined)
T/C [1]: 89 % of control
T/C [2]: 107 % of control
T/C [3]: 112 % of control
T/C [4]: 105 % of control
T/C [5]: 103 % of control
T/C (dose: 400.0 mg/kg/injection, schedule: Q01DX009 (ip), vehicle: saline with Tween-80): 90 % of control
T/C [6]: 117 % of control

OC(Cc1cc(CC(O)(C(F)(F)F)C(F)(F)F)ncn1)(C(F)(F)F)C(F)(F)F
T/C [2]: 95 % of control
T/C [4]: 90 % of control

ON=C(CSCc1ccccc1)CSCc1ccccc1
T/C [7]: 99 % of control
T/C [3]: 103 % of control
T/C [5]: 88 % of control
T/C [6]: 95 % of control

CCCCCCCCCCCCCCCC(=O)OCCCCCCCCCCCCC
T/C (dose: 25.0 mg/kg/injection, schedule: Q04DX003 (ip), vehicle: saline with Tween-80): 100 % of control
T/C [7]: 100 % of control
T/C [3]: 105 % of control

O=[N+]([O-])c1ccc(N=Cc2ccccc2)cc1
T/C [8]: 100 % of control
T/C [9]: 108 % of control
T/C [10]: 108 % of control

Cc1ccc(NCC2(/N=C/c3ccccc3)OC(CO)C(O)C2O)cc1 (centres undefined)
T/C [8]: 119 % of control
T/C (dose: 200.0 mg/kg/injection, schedule: Q01DX009 (ip), vehicle: Klucel (hydroxypropylcellulose) (HPC)): 150 % of control
T/C [9]: 107 % of control
T/C (dose: 400.0 mg/kg/injection, schedule: Q01DX009 (ip), vehicle: Klucel (hydroxypropylcellulose) (HPC)): 158 % of control
T/C [10]: 123 % of control

COc1cc2ccc3c4cc5c(cc4c[n+](C)c3c2cc1OC)OCO5
T/C (dose: 20.0 mg/kg/injection, schedule: Q01DX009 (ip), vehicle: saline): 122 % of control
T/C (dose: 40.0 mg/kg/injection, schedule: Q01DX009 (ip), vehicle: saline): 154 % of control and 159 % of control
T/C (dose: 80.0 mg/kg/injection, schedule: Q01DX009 (ip), vehicle: saline): 113 % of control
T/C (dose: 120.0 mg/kg/injection, schedule: Q01DX009 (ip), vehicle: saline): 86 % of control

Cc1nc(Cl)c(C#N)c(C)c1Cl
T/C (dose: 50.0 mg/kg/injection, schedule: Q01DX005 (ip), vehicle: saline with Tween-80): 97 % of control
T/C (dose: 100.0 mg/kg/injection, schedule: Q01DX005 (ip), vehicle: saline with Tween-80): 92 % of control
T/C (dose: 200.0 mg/kg/injection, schedule: Q01DX005 (ip), vehicle: saline with Tween-80): 94 % of control

NC1=NC(=O)/C(=C/c2ccccc2)S1
T/C (dose: 50.0 mg/kg/injection, schedule: Q01DX009 (ip), vehicle: saline): 90 % of control
T/C (dose: 100.0 mg/kg/injection, schedule: Q01DX009 (ip), vehicle: saline): 100 % of control
T/C (dose: 200.0 mg/kg/injection, schedule: Q01DX009 (ip), vehicle: saline): 100 % of control
